According to patent EP0310305B1 (priority 1987, dated 1989):
Read-outs that look alike come from different tables or passages of the source.

Tests used:
[1] = tested on: male rats (Crj Wister Rat; 180 - 240 g); experiment: animal or person; type: in vivo; conditions: for Entero-pooling ED₅₀: rat, in vivo, 30 min; for ED50: Rattus norvegicus, 0.5 h
[2] = tested on: Ileum; experiment: tissue or blood; conditions: Rattus norvegicus
[3] = tested on: Male Crj Wister rats; experiment: animal or person; type: in vivo; conditions: Rattus norvegicus, po, 6 h, read-out: Cathartic Effect ED50
[4] = tested on: healthy male volunteers; conditions: human, in vivo, po
[5] = read-out: Intestinal Contrac-tion
[6] = read-out: Intestinal Contraction

Compound	EC50 [2, 6] [µM]	ED50 ([1]; read-out: Entero-pooling ED₅₀) [mg/kg]	other results
13,14-dihydro-15-keto-16R,S-fluoro-Δ²-PGA₁ [Test Drug 9]	–	–	Entero-pooling ED₅₀ [1]: 0.2 mg/kg
13,14-dihydro-15-keto-16R,S-fluoro-Δ²-PGA₁ methyl ester [Test Drug 10]	–	–	Entero-pooling ED₅₀ [1]: 0.2 mg/kg
CCCCC[C@H](O)/C=C/[C@H]1[C@H](O)CC(=O)[C@@H]1C/C=C\CCCC(=O)O [Test Drug 1, Prostaglandin E2, reference compound]	–	–	ED50 ([1]; read-out: Entero-pooling ED50): 0.13 mg/kg; EC50 [2, 5]: < 1 µM; ED50 [3]: > 10 mg/kg
CCCCC(F)C(=O)CC[C@H]1[C@H](O)CC(=O)[C@@H]1C/C=C\CCCC(=O)OC (stereo partly shown) [Test Drug 2, 13,14-dihydro-15-keto-16R,S-fluoro-prostaglandin]	–	–	abnormality or malaise in belly at 8 hours after administration [4]: no particular abnormality nor malaise in belly; clinical observation [4]: no abnormality; other side effects [4]: no one complained of other side effects such as bellyache; ED50 ([1]; read-out: Entero-pooling ED50): 0.003 mg/kg; EC50 [2, 5]: 1 to 100 µM; ED50 [3]: 0.8 mg/kg
CCCCC(F)C(=O)CC[C@H]1[C@H](O)CC(=O)[C@@H]1C/C=C\CCCC(=O)OCC (stereo partly shown) [Test Drug 4, 13,14-dihydro-15-keto-16R,S-fluoro-PGE₂ ethyl ester]	1 to 100	–	ED50 ([1]; read-out: Enteropooling ED₅₀): 0.002 mg/kg
CCCCCC(F)C(=O)CC[C@H]1[C@H](O)CC(=O)[C@@H]1C/C=C\CCCC(=O)OC (stereo partly shown) [Test Drug 5, 13,14-dihydro-15-keto-16R,S-fluoro-20-methyl-PGE₂ methyl ester]	1 to 100	–	ED50 ([1]; read-out: Enteropooling ED₅₀): 0.002 mg/kg
CCCCC(F)C(=O)/C=C/[C@H]1[C@H](O)CC(=O)[C@@H]1C/C=C\CCCC(=O)O (stereo partly shown) [Test Drug 6, 15-keto-16R,S-fluoro-PGE₂]	1 to 100	–	ED50 ([1]; read-out: Enteropooling ED₅₀): 0.002 mg/kg
CCCCC(F)C(=O)/C=C/[C@H]1[C@H](O)CC(=O)[C@@H]1C/C=C\CCCC(=O)OC (stereo partly shown) [Test Drug 7, 15-keto-16R,S-fluoro-PGE₂ methyl ester]	1 to 100	–	ED50 ([1]; read-out: Enteropooling ED₅₀): 0.002 mg/kg
CCCCC(F)(F)C(=O)CC[C@H]1[C@H](O)CC(=O)[C@@H]1C/C=C\CCCC(=O)OC [Test Drug 8, 13,14-dihydro-15-keto-16,16-difluoro-PGE₂ methyl ester]	1 to 100	–	ED50 ([1]; read-out: Enteropooling ED₅₀): 0.0002 mg/kg
CCCCC[C@H](O)/C=C/[C@H]1C=CC(=O)[C@@H]1CCCCCCC(=O)O [Test Drug 11, PGA₁, reference compound]	–	4	–
CCCCC(F)C(=O)CC[C@@H]1[C@@H](C/C=C\CCCC(=O)O)[C@@H](O)C[C@H]1O (stereo partly drawn) [Test Drug 12, 13,14-dihydro-15-keto-16R,S-fluoro-PGF₂α]	> 100	0.2	–
CCCCC(F)C(=O)CC[C@@H]1[C@@H](C/C=C\CCCC(=O)OC)[C@@H](O)C[C@H]1O (stereo partly drawn) [Test Drug 13, 13,14-dihydro-15-keto-16R,S-fluoro-PGF₂α methyl ester]	–	0.14	–
CCCCC(F)(F)C(=O)CC[C@@H]1[C@@H](C/C=C\CCCC(=O)OC)[C@@H](O)C[C@H]1O [Test Drug 14, 13,14-dihydro-15-keto-16,16-difluoro-PGF₂α methyl ester]	1 to 100	0.2	–
CCCCCC(F)C(=O)CC[C@@H]1[C@@H](C/C=C\CCCC(=O)OC)[C@@H](O)C[C@H]1O (stereo partly drawn) [Test Drug 15, 13,14-dihydro-15-keto-16R,S-fluoro-20-methyl-PGF₂α methyl ester]	1 to 100	0.3	–
CCCCCCC(F)C(=O)CC[C@@H]1[C@@H](C/C=C\CCCC(=O)O)[C@@H](O)C[C@H]1O (stereo partly drawn) [Test Drug 16, 13,14-dihydro-15-keto-20-ethyl-16R,S-fluoro-PGF₂α]	> 100	0.7	–
CCCCCCC(F)C(=O)CC[C@@H]1[C@@H](C/C=C\CCCC(=O)OC)[C@@H](O)C[C@H]1O (stereo partly drawn) [Test Drug 17, 13,14-dihydro-15-keto-20-ethyl-16R,S-fluoro-PGF₂α methyl ester]	1 to 100	0.6	–
CCCCC(F)C(=O)/C=C/[C@@H]1[C@@H](C/C=C\CCCC(=O)OC)[C@@H](O)C[C@H]1O (stereo partly drawn) [Test Drug 18, 15-keto-16-R,S-fluoro-PGF₂α methyl ester]	> 100	0.15	–
CCCCC[C@H](O)/C=C/[C@@H]1[C@@H](C/C=C\CCCC(=O)O)[C@@H](O)C[C@H]1O [Test Drug 19, PGF₂α, reference compound]	< 1	4.9	–
